Measured values published in PMC6751662, “Pharmacological and functional similarities of the human neuropeptide Y system in C. elegans challenges phylogenetic views on the FLP/NPR system” (Cell Communication and Signaling : CCS, 2019).

How the values were obtained:
Format in all cases: cell-based, C. elegans
NPR-6 = assay: IP accumulation assay, co-transfected Gα16, NPR-6; conditions: 1 h, HBSS + 20 mM LiCl, HEK293 receptor + Gα16, HTRF IP-One, mean of >=3 independent experiments
Description: (§1) For measuring IP accumulation, HEK293 cells grown to 70–80% confluency in 6-well plates were transiently co-transfected using Metafectene Pro (2.5 μl/μg DNA; Biontex) with plasmids containing receptor and/or mock (empty pcDNA3.1) (for endogenous Gq-coupling) using 4 μg total DNA in a ratio of 3:1 following the manufacturer’s instructions. For testing Gα16- and GαΔ6qi4myr-coupling, plasmids encoding the corresponding Gα protein were co-transfected instead of mock. Gα16 is naturally promiscuous and stimulates the phospholipase C (PLC) pathway leading to IP production, while the exchange of the C-terminal four amino acids of Gαq for the corresponding residues of Gαi1 in the chimeric GαΔ6qi4myr confers the ability to couple to Gi/o protein-preferring receptors but still stimulate PLC, thus specifically redirecting downstream cellular signaling. 16 h post transfection, the cells were seeded into white 384-well plates at a density of 20,000 cells/well. Media was removed 24 h later and the cells were incubated with the indicated concentration of peptides for 1 h in HBSS + 20 mM LiCl. IP accumulation was measured with the HTRF-based IP-One Gq kit (Cisbio) on a microplate reader (Tecan Spark).
(§2) For in vitro activation, data is presented as mean ± SEM of at least three independent experiments conducted in technical triplicate. […]

NPR-3 = target: T1, NPR-3 (Caenorhabditis elegans, UniProt P90745); assay: cAMP reporter gene assay, Gs (no forskolin), NPR-3; conditions: no forskolin, 4 h, transiently transfected HEK293, CRE-luciferase reporter, mean of >=3 independent experiments
T1 construct: expressed in transfected cells; host or cells: HEK293
T1 sequence (P90745 1-376): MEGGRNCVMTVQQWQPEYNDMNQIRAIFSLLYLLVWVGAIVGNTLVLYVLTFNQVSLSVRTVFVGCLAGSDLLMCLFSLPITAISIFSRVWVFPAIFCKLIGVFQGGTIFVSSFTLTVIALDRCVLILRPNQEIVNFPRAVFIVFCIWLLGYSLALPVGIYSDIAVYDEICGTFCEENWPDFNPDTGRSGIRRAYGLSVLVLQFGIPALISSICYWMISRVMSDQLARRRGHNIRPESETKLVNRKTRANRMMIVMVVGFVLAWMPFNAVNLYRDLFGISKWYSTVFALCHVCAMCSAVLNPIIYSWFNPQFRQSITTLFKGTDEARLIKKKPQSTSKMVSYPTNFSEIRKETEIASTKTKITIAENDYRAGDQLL
Description: Activation of Gs and Gi/o was assessed with a cAMP reporter gene assay. HEK293 cells grown to 70–80% confluency in 6-well plates were transiently co-transfected with vectors encoding the receptor and the cAMP reporter gene plasmid pGL4.29 [luc2P/CRE/Hygro] (Promega; 4 μg total, 1:1 ratio) using Metafectene Pro (3 μl/μg DNA; Biontex) following the manufacturer’s instructions. 16 h post transfection, the cells were seeded into white 384-well plates at a density of 20,000 cells/well. On the next day, the medium was removed and the cells were stimulated with 20 μl of peptide solution (or forskolin as positive control) in serum-free DMEM for 4 h. For measuring Gi/o activity, the peptide solutions additionally contained 1 μM forskolin to elevate cellular cAMP levels. After incubation, the luciferase substrate OneGlo in lysis buffer (Promega) was added and the luminescence was measured in a microplate reader Tecan Spark (Tecan). Data were analyzed with GraphPad Prism 5.03 and are shown as fold of basal or fold of forskolin in case of Gαi/o activity.
For in vitro activation, data is presented as mean ± SEM of at least three independent experiments conducted in technical triplicate. […] For the C. elegans NPRs, we considered the strongest response elicited by any of the peptides downstream of a particular receptor as the receptor’s maximal signal. This may or may not be the biological maximum that can be reached by the ‘true’ endogenous agonist. For the human receptors, the response to the established endogenous agonist reflected the maximal signal.

NPR-4b = target: T2, NPR-4b (Caenorhabditis elegans, UniProt A0A078BTK0); assay: IP accumulation assay, endogenous Gαq + mock, NPR-4b; conditions: 1 h, HBSS + 20 mM LiCl, HEK293 receptor + empty vector, HTRF IP-One, mean of >=3 independent experiments
T2 sequence (A0A078BTK0 1-376): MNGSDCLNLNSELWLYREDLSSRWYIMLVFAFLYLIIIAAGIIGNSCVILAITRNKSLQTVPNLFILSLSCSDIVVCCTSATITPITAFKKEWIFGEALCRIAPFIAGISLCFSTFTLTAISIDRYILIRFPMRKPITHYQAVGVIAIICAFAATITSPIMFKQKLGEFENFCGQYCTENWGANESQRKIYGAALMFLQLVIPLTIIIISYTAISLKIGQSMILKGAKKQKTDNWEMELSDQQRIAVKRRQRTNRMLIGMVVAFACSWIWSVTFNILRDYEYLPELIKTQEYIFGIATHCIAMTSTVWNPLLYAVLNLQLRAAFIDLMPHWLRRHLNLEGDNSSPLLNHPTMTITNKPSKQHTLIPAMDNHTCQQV
Description: as §1, §2

NPR-1 = target: T3, NPR-1 (Caenorhabditis elegans, UniProt Q18534); assay: IP accumulation assay, endogenous Gαq + mock, NPR-1; parameters: host or cells: HEK293; conditions: 1 h, HBSS + 20 mM LiCl, HEK293 receptor + empty vector, HTRF IP-One, mean of >=3 independent experiments
T3 sequence (Q18534 1-457): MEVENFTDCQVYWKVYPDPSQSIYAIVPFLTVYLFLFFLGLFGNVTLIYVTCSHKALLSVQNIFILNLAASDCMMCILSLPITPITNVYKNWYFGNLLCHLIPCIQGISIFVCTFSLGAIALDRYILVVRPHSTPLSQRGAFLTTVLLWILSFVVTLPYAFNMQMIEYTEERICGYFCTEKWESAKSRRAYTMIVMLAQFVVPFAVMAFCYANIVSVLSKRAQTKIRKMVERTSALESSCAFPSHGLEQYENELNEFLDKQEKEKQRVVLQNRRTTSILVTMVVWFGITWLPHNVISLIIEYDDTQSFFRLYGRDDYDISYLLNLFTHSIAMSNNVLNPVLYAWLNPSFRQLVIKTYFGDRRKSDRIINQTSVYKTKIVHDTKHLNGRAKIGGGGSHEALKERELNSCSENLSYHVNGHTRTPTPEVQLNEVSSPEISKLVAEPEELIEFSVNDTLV
Description: as §1, §2

[1] = 0.1 nM peptide (so in the source)

Substance: APKPKFIRF-NH2 [FLP-5-1, C. elegans FMRFamide-like peptide, C-terminally amidated, synthesized by SPPS]
- IP assay endog. Gαq + Gα16, NPR-6 (NPR-6; [1]): 1.01 x-fold of basal
- IP assay endog. Gαq + Gα16, NPR-6 (NPR-6; 10 µM peptide): 0.96 x-fold of basal
- cAMP assay Gs, NPR-3 (NPR-3; 0.1 µM peptide): 0.86 x-fold of basal
- cAMP assay Gs, NPR-3 (NPR-3; 10 µM peptide): 0.85 x-fold of basal
- IP assay endog. Gαq + mock, NPR-4b (NPR-4b; [1]): 0.98 x-fold of basal
- IP assay endog. Gαq + mock, NPR-4b (NPR-4b; 10 µM peptide): 0.99 x-fold of basal
- IP assay endog. Gαq + mock, NPR-1 (NPR-1; [1]): 0.89 x-fold of basal
- IP assay endog. Gαq + mock, NPR-1 (NPR-1; 10 µM peptide): 0.94 x-fold of basal
